Results reported in US12053504B2, “Anti-angiogenic treatment using VLO4 with a blocking peptide” ([…] OF PHARMACY, LLC, priority 2011, dated 2024).
Entries after “also recorded” stand apart in the source; their conditions may differ.

Key:
colorectal cancer = settings: in combination with the standard Saltz regime of irinotecan, 5-fluorouracil, and leucovorin; cited from earlier work
HT1080 tumor cell = HT1080 tumor cell invasion from contracted collagen into fibrin 3D matrices; format: cell-based; settings: for HT1080 tumor cell invasion from contracted collagen into fibrin 3D matrices: 3 μg/ml, FIGS. 11 and 12
HDMEC = test: Microcarrier (EC-bead) in vitro sprout angiogenesis assay of HDMEC in fibrin gel; format: cell-based, human; settings: for sprout angiogenesis in a HDMEC culture in VEGF and bFGF (Example 4): agent(s) added to HDMEC culture in VEGF and bFGF, doses not printed in this block; for sprout angiogenesis of HDMEC in fibrin induced by VEGF and bFGF: 3 days; for sprout angiogenesis of HDMEC in fibrin, single agent (Example 4 summary): in vitro, doses not given
Procedure: Human dermal microvascular endothelial cells (HDMEC) were isolated from human neonatal foreskins. Briefly, after initial harvest from minced trypsinized human foreskins, microvascular endothelial cells were further purified on a PERCOLL density gradient. HDMEC were cultured on collagen type 1 coated tissue culture flasks in EGM (endothelial cell growth medium) consisting of EBM supplemented with 10 ng/ml epidermal growth factor, 0.4% bovine brain extract, 17.5 microg/ml dibutyryl cyclic AMP, and 1 microg/ml hydrocortisone in the presence of 30% normal human serum. Endothelial cell cultures were characterized and determined to be >99% pure on the basis of formation of typical cobblestone monolayers in culture, positive immunostaining for factor VIII-related antigen, and selective uptake of acetylated low density lipoprotein. All experiments were done with HDMEC below passage 10. Bovine aortic endothelial cells (BAEC) were obtained from BioWhittaker, Inc. (Walkersville, MD) and cultured according to manufacturer's instruction. BAEC between passage 4 and 8 were used for experiments.
Gelatin-coated CYTODEX-3 microcarrier beads were prepared as described by the manufacturer. Approximately 80,000 sterile microcarrier beads were washed, resuspended in EGM, and added to approximately 4.5 million endothelial cells (HDMEC or BAEC). The beads and cells were mixed by gentle swirling, incubated at 37° C. for 6 hr, and then rotated for 24-36 hr on an orbital mixer in a 37° C. oven to generate endothelial cell-loaded microcarrier beads (EC-beads).
FIGS. 1A-1C illustrate a study of human microvascular endothelial cell angiogenesis, according to some embodiments. A microcarrier, in vitro angiogenesis assay, previously designed to investigate bovine pulmonary artery endothelial cell angiogenic behavior in bovine fibrin gels, was modified for the study of human microvascular endothelial cell angiogenesis. The HDMEC were isolated from human neonatal foreskins and used, as described above, and images were captured at various magnifications, where the effect of angiogenic factors on sprout angiogenesis was quantified visually by counting the number and percent of EC-beads with capillary sprouts. […]
For experiments using RGD peptides, EC-beads were firstly incubated with vary concentrations of peptides for one hour and then were added to the ECM solutions. About 500 EC-beads were then added to the ECM protein solutions, followed by the addition of 0.5 U/ml human thrombin. A 0.3 ml aliquot of each suspension was immediately added to appropriate wells of a 24-well tissue culture plate. After gelation, 1 ml of fresh assay medium (EBM supplemented with 20% normal human serum for HDMEC or EBM supplemented with 10% fetal bovine serum for BAEC) was added to each well.
FIGS. 1B and 1C show how the angiogenic response was monitored visually and recorded by video image capture. Specifically, capillary sprout formation was observed and recorded with a NIKON Diaphot-TMD inverted microscope (Nikon Inc., Melville, NY), equipped with an incubator housing with a NIKON NP-2 thermostat and Sheldon #2004 carbon dioxide flow mixer. The microscope was directly interfaced to a video system consisting of a Dage-MTI CCD-72S video camera and Sony 12″ PVM-122 video monitor linked to a Macintosh G3 computer. The images were captured at various magnifications using Adobe Photoshop. The effect of angiogenic factors on sprout angiogenesis was quantified visually by determining the number and percent of EC-beads with capillary sprouts. 100-200 beads (five random low power fields) in each of triplicate wells were counted for each experimental condition. All experiments were repeated at least three times.

[1] = biological target: collagen receptors α2β1 integrins (Homo sapiens, UniProt P05556+P17301); settings: cited from earlier work
[2] = tested on: A549 (human alveolar adenocarcinoma cell line); test: A549 tumor cell proliferation; format: cell-based; settings: FIG. 13
[3] = tested on: H1650 (Human metastatic lung cancer cell line); test: H1650 tumor cell proliferation; format: cell-based; settings: FIG. 13

In the case of “AVASTATIN: human monoclonal antibody to VEGF”, the “increase in survival time” value (colorectal cancer) is listed as “more than 30%”.

For “Echistatin (QCESGPCCRNCKFLKEGTICKRARGDDMDDYCNGKTCDCPRNPHKGPAT)”, the “HT1080 tumor cell invasion from contracted collagen into fibrin 3D matrices” value (HT1080 tumor cell) was “significantly inhibit”, the “sprout angiogenesis in a HDMEC culture in VEGF and bFGF (Example 4)” value (HDMEC) was “inhibition” and the “sprout angiogenesis of HDMEC in fibrin induced by VEGF and bFGF” value (shortened to “sprout angiogenesis … by VEGF and bFGF”) (HDMEC; echistatin 0.1 μg/ml alone, VEGF 30 ng/ml, bFGF 25 ng/ml, FIG. 10B) was “didn't significantly inhibit”. For the same molecule, the “sprout angiogenesis of HDMEC in fibrin, single agent (Example 4 summary)” value (HDMEC) was “dose dependently inhibits”.

With “GPenGRGDSPCA [RGD[VN], reference compound]” the “sprout angiogenesis of HDMEC in fibrin” value (HDMEC; RGD[VN] 12.5 mM-100 mM, pre-incubated 1 hr at RT, VEGF 100 ng/ml, compared to GRGESP[RGE] control peptide, FIG. 4) was “significantly inhibited”.

For VP12, the “inhibitory activity against collagen receptors α2β1 integrins” value [1] is listed as “potent inhibitory activity”, the “HT1080 tumor cell invasion from contracted collagen into fibrin 3D matrices” value (HT1080 tumor cell) is listed as “significantly inhibit” and the “sprout angiogenesis … by VEGF and bFGF” value (HDMEC; VP12 10 μg/ml alone, VEGF 30 ng/ml, bFGF 25 ng/ml) is listed as “didn't significantly inhibit”. The “enhancement of the inhibition of sprout angiogenesis by echistatin” value (HDMEC; VP12 (ECL12) administered in combination with echistatin) was “significantly and synergistically enhanced”, the “sprout angiogenesis in a HDMEC culture in VEGF and bFGF (Example 4)” value (HDMEC) was “inhibition” and the “sprout angiogenesis of HDMEC in fibrin, single agent (Example 4 summary)” value (HDMEC) was “no inhibitory effect”.

B1: VLO4 (protein)
chain: MNSGNPCCDPVTCKPRRGEHCVSGPCCRNCKFLNAGTICKRARGDDMNDYCTGISPDCPRNPWKG
For B1, the “A549 tumor cell proliferation” value [2] was “significantly inhibited”, the “HT1080 tumor cell invasion from contracted collagen into fibrin 3D matrices” value (HT1080 tumor cell) was “significantly inhibit” and the “HT1080 tumor cell invasion from contracted 3D collagen matrices into 3D fibrin matrices, dose dependence” value (HT1080 tumor cell; FIG. 11) was “dose dependently inhibits”. The “sprout angiogenesis … by VEGF and bFGF” value (HDMEC; VLO4 0.01 μg/ml alone, VEGF 30 ng/ml, bFGF 25 ng/ml) was “didn't significantly inhibit”, the “sprout angiogenesis of HDMEC induced by VEGF in fibrin” value (HDMEC; VLO4 0.3 μg/ml-3 μg/ml, 30 minutes at RT, VEGF 100 ng/ml, FIG. 5) was “dose-dependently inhibits” and the “disruption of newly formed angiogenic sprouts of HDMEC in fibrin” value (HDMEC; VLO4 3 μg/ml added on day 5, read within 24 hours, VEGF 30 ng/ml, bFGF 25 ng/ml, CH2 10 μg/ml, FIG. 7B) was “totally disrupted; also recorded: disrupts”. The “sprout angiogenesis of HDMEC induced by VEGF in fibrin (micrographs)” value (HDMEC; VLO4 0.01, 0.1, 0.3 and 1 μg/ml, 30 minutes at room temperature, VEGF 100 ng/ml, FIGS. 6A-6D) was “dose-dependently inhibits” and the “H1650 tumor cell proliferation” value [3] was “significantly inhibited”.
